Measurements: patent publication US20240090503A1, “FUNGICIDAL OXADIAZOLES AND THEIR MIXTURES” (FMC CORPORATION, priority 2020, published 2024)
Read-outs that look alike come from different tables or passages of the source. Values belong to the compound of their own block, whether it stands above or below them.

Columns and labels:
[1] = test system: Phakopsora pachyrhizi (the causal agent of Asian soybean rust); experiment: Test A: preventive spray on soybean seedlings, Asian soybean rust, visual disease rating; type: in vivo; settings: Phakopsora pachyrhizi, 216 h, soybean seedlings, 100 = 100% disease control, 0 = no control; for pest or weed control at 10 µg/mL: test suspension 10 ppm, read-out: Test A disease control rating; for pest or weed control at 10 ppm: 10 ppm test suspension
Summary of the method: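 Compound in acetone/water (50/50) with 250 ppm PEG400 sprayed to run-off on soybean seedlings; inoculated next day with Phakopsora pachyrhizi spores. Held 24 h at 22° C in saturated atmosphere, then 8 days in a 22° C growth chamber before visual rating as % disease control relative to controls.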

[2] = test system: Puccinia recondita f. sp. tritici (the causal agent of wheat leaf rust); experiment: Test C: preventive spray on wheat seedlings, wheat leaf rust, visual disease rating; type: in vivo; settings: Puccinia recondita, 168 h, wheat seedlings; for pest or weed control at 10 µg/mL: test suspension 10 ppm, read-out: Test C disease control rating; for pest or weed control at 10 ppm: 10 ppm test suspension
Summary of the method: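 Wheat seedlings sprayed to run-off with compound in acetone/water (50/50) with 250 ppm PEG400, then inoculated with spores the following day. After 24 h saturated humidity at 20° C. and 6 days in growth chamber at 20° C., disease rated visually as % control relative to untreated controls.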

[3] = test system: Phakopsora pachyrhizi (the causal agent of Asian soybean rust); experiment: Test E: compounds alone and mixtures sprayed on soybean seedlings, Asian soybean rust, observed and Colby-expected disease control; type: in vivo
Excerpt: The general protocol for preparing test compositions for TEST E was as follows: Compound 316, Compound 376, Compound 225, Compound 229, Compound 257, Compound 394, Compound 506, Compound 507, Compound 508, Compound 509, Compound 511, Compound 512, methyl N-[[5-[1-[2,6-difluoro-4-(1-methylethyl)phenyl]-1H-pyrazol-3-yl]-2-methylphenyl]methyl]carbamate (b54.11a), methyl N-[[5-[l-(4-cyclopropyl-2,6-difluorophenyl)-1H-pyrazol-3-yl]-2-methylphenyl]methyl]carbamate (b54.11d), ethyl 1-[[4-[[(1Z)-2-ethoxy-3,3,3-trifluoro-1-propen-1-yl]oxy]phenyl]methyl]-1H-pyrazole-4-carboxylate (b54.12a), ethyl 1-[[4-[[2-(trifluoromethyl)-1,3-dioxolan-2-yl]methoxy]phenyl]methyl]-1H-pyrazole-4-carboxylate (b54.13a), azoxystrobin, benzovindiflupyr, bixafen, chlorothalonil, cyproconazole, epoxiconazole, fenpropidin, fenpropimorph, fluindapyr, flutriafol, fluxapyroxad, inpyrfluxam, metominostrobin, picoxystrobin, prothioconazole, pydiflumetofen, pyraclostrobin, tebuconazole and trifloxystrobin were obtained as unformulated, technical-grade materials. Copper hydroxide and mancozeb was obtained as a formulated product marketed under the trademarks KOCIDE 3000 and MANZATE, respectively. Unformulated materials were first dissolved in acetone and then suspended at the desired concentration (in ppm) in acetone and purified water (50/50 mixture by volume) containing 250 ppm of the surfactant Trem® 014 (polyhydric alcohol esters). Formulated materials were dispersed in sufficient water to give the desired concentration, and neither organic solvent nor surfactant was added to the suspension. The resulting test mixtures were then used in TEST E. The tests were run on four individual plants and the results reported as the mean average of the four plants.
The presence of a synergistic effect between two active ingredients can be established with the aid of the Colby equation (see Colby, S. R. “Calculating Synergistic and Antagonistic Responses of Herbicide Combinations”, Weeds, (1967), 15, 20-22):
Using the method of Colby, the presence of a synergistic interaction between two active ingredients is established by first calculating the predicted activity, p, of the mixture based on activities of the two components applied alone. If p is lower than the experimentally established effect, synergism has occurred. In the equation above, A is the fungicidal activity in percentage control of one component applied alone at rate x. The B term is the fungicidal activity in percentage control of the second component applied at rate y. The equation estimates p, the expected fungicidal activity of the mixture of A at rate x with B at rate y if their effects are strictly additive and no interaction has occurred.
The test mixture was sprayed to the point of run-off on soybean seedlings. The following day the seedlings were inoculated with a spore suspension of Phakopsora pachyrhizi (the causal agent of Asian soybean rust) and incubated in a saturated atmosphere at 22° C. for 24 h and then moved to a growth chamber at 22° C. for 8 days, after which time visual disease ratings were made.
Results for Test E are given below in Tables A-1 through K-2. Each table corresponds to a set of evaluations performed together at the same time. In each table, a rating of 100 indicates 100% disease control and a rating of 0 indicates no disease control (relative to the controls). Columns labeled “Obsd” indicate the average of results observed from test run on four individual plants. Columns labeled “Exp” indicate the expected value for each treatment mixture using the Colby equation, as described above.

[4] = test system: Zymoseptoria tritici (the causal agent of wheat leaf blotch); experiment: Test B: preventive spray on wheat seedlings, wheat leaf blotch, visual disease rating; type: in vivo; settings: Zymoseptoria tritici, 456 h, wheat seedlings; for pest or weed control at 250 µg/mL: test suspension 250 ppm; for pest or weed control at 250 ppm: 250 ppm test suspension, 100 = 100% disease control
Summary of the method: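 This is a preventive test: spray application preceded Zymoseptoria tritici spore inoculation by one day. Test suspensions were in acetone/water with 250 ppm PEG400 surfactant, at the listed ppm rate. After 48 h saturated humidity at 24° C and 17 days at 20° C, visual ratings scored control from 0 to 100%.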

[5] = Phakopsora pachyrhizi, Compound 509 alone, read-out: Test E Obsd
[6] = Phakopsora pachyrhizi, applied alone, read-out: Test E Obsd
[7] = 100 = 100% disease control, 0 = no control
[8] = Phakopsora pachyrhizi, Compound 512 alone, read-out: Test E Obsd
[9] = Phakopsora pachyrhizi, Compound 511 alone, read-out: Test E Obsd

SMILES: Cn1nc(C(=O)NCC(F)(F)F)cc1Cc1ccc(-c2noc(C(F)(F)F)n2)cc1 [Compound 509, 1-methyl-N-(2,2,2-trifluoroethyl)-5-[[4-[5-(trifluoromethyl)-1,2,4-oxadiazol-3-yl]phenyl]methyl]-1H-pyrazole-3-carboxamide]
pest or weed control at 50 ppm ([1]; 50 ppm test suspension): 100%
pest or weed control at 50 ppm ([2]; 50 ppm test suspension, 100 = 100% disease control, 0 = no control): 99%
pest or weed control at 2.796 ppm [3, 5]: 36%
pest or weed control at 5.625 ppm [3, 5]: 47%
pest or weed control at 2.796 ppm [3, 6]: 54%
pest or weed control at 5.625 ppm [3, 6]: 35%
melting point: 142 to 142.9 °C

SMILES: O=C(NCC(F)(F)F)c1coc(Cc2ccc(-c3noc(C(F)(F)F)n3)cc2)n1 [Compound 316, N-(2,2,2-trifluoroethyl)-2-[[4-[5-(trifluoromethyl)-1,2,4-oxadiazol-3-yl]phenyl]methyl]-4-oxazolecarboxamide]
pest or weed control at 10 µg/mL [1]: 100%
pest or weed control at 250 µg/mL [4]: 5%
pest or weed control at 10 µg/mL [2]: 100%
pest or weed control at 0.471 ppm ([3]; Phakopsora pachyrhizi, Compound 316 alone, 0.471 ppm, read-out: Test E Obsd): 24%
pest or weed control at 0.764 ppm ([3]; Phakopsora pachyrhizi, Compound 316 alone, 0.764 ppm, read-out: Test E Obsd): 82%
pest or weed control at 0.471 ppm ([3]; Phakopsora pachyrhizi, Table A-1, Compound 316 0.471 ppm alone, read-out: Test E Obsd (disease control rating)): 59%
pest or weed control at 0.764 ppm ([3]; Phakopsora pachyrhizi, Table A-1, Compound 316 0.764 ppm alone, read-out: Test E Obsd (disease control rating)): 75%
pest or weed control at 0.471 ppm ([3]; Phakopsora pachyrhizi, Table B-1, Compound 316 0.471 ppm alone, read-out: Test E Obsd (disease control rating)): 22%
pest or weed control at 0.764 ppm ([3]; Phakopsora pachyrhizi, Table B-1, Compound 316 0.764 ppm alone, read-out: Test E Obsd (disease control rating)): 54%
pest or weed control at 0.471 ppm ([3]; Phakopsora pachyrhizi, Table C-1, Compound 316 0.471 ppm alone, read-out: Test E Obsd (disease control rating)): 49%
pest or weed control at 0.764 ppm ([3]; Phakopsora pachyrhizi, Table C-1, Compound 316 0.764 ppm alone, read-out: Test E Obsd (disease control rating)): 66%
pest or weed control at 0.471 ppm ([3]; Phakopsora pachyrhizi, Table D-1, Compound 316 0.471 ppm alone, read-out: Test E Obsd (disease control rating)): 20%
pest or weed control at 0.764 ppm ([3]; Phakopsora pachyrhizi, Table D-1, Compound 316 0.764 ppm alone, read-out: Test E Obsd (disease control rating)): 70%
pest or weed control at 0.471 ppm ([3]; Phakopsora pachyrhizi, Table F-1, Compound 316 0.471 ppm alone, read-out: Test E Obsd (disease control rating)): 61%
pest or weed control at 0.764 ppm ([3]; Phakopsora pachyrhizi, Table F-1, Compound 316 0.764 ppm alone, read-out: Test E Obsd (disease control rating)): 68%
pest or weed control at 0.471 ppm ([3]; Phakopsora pachyrhizi, Table G-1, Compound 316 0.471 ppm alone, read-out: Test E Obsd (disease control rating)): 31%
pest or weed control at 0.764 ppm ([3]; Phakopsora pachyrhizi, Table G-1, Compound 316 0.764 ppm alone, read-out: Test E Obsd (disease control rating)): 64%
pest or weed control at 0.471 ppm ([3]; Phakopsora pachyrhizi, Table H-1, Compound 316 0.471 ppm alone, read-out: Test E Obsd (disease control rating)): 44%
pest or weed control at 0.764 ppm ([3]; Phakopsora pachyrhizi, Table H-1, Compound 316 0.764 ppm alone, read-out: Test E Obsd (disease control rating)): 80%
pest or weed control at 0.471 ppm ([3]; Table E-1, Compound 316 0.471 ppm alone, read-out: Test E Obsd (disease control rating)): 61%
pest or weed control at 0.764 ppm ([3]; Table E-1, Compound 316 0.764 ppm alone, read-out: Test E Obsd (disease control rating)): 58%
melting point: 164 to 168 °C

SMILES: COCCNC(=O)c1csc(Cc2ccc(-c3noc(C(F)(F)F)n3)cc2)n1 [Compound 394, N-(2-methoxyethyl)-2-[[4-[5-(trifluoromethyl)-1,2,4-oxadiazol-3-yl]phenyl]methyl]-4-thiazolecarboxamide]
pest or weed control at 10 ppm [1]: 100%
pest or weed control at 250 ppm [4]: 99%
pest or weed control at 10 ppm [2, 7]: 100%
pest or weed control at 0.241 ppm ([3]; Phakopsora pachyrhizi, applied alone, 0.241 ppm, read-out: Test E Obsd): 4%
melting point: 83 to 87 °C

SMILES: O=C(NCCC(F)(F)F)c1coc(Cc2ccc(-c3noc(C(F)(F)F)n3)cc2)n1 [Compound 330, 2-[[4-[5-(trifluoromethyl)-1,2,4-oxadiazol-3-yl]phenyl]methyl]-N-(3,3,3-trifluoropropyl)-4-oxazolecarboxamide]
pest or weed control at 10 µg/mL [1]: 100%
pest or weed control at 250 µg/mL [4]: 96%
pest or weed control at 10 µg/mL [2]: 100%
melting point: 104 to 105 °C

SMILES: N#CCn1ccc(Cc2ccc(-c3noc(C(F)(F)F)n3)cc2)n1 [Compound 507, 3-[4-[(1-cyanomethyl-1H-pyrazol-3-yl)methyl]phenyl]-5-(trifluoromethyl)-1,2,4-oxadiazole]
pest or weed control at 10 ppm [1]: 100%
pest or weed control at 10 ppm [2, 7]: 98%
pest or weed control at 1.823 ppm ([3]; Phakopsora pachyrhizi, applied alone, 1.823 ppm, read-out: Test E Obsd): 74%
melting point: 111 to 114 °C

Further lines, with some results ahead:

melting point: 156 to 160 °C
SMILES: Cn1nc(Cc2ccc(-c3noc(C(F)(F)F)n3)cc2)cc1C(=O)NCC(F)(F)F [Compound 512, 1-methyl-N-(2,2,2-trifluoroethyl)-3-[[4-[5-(trifluoromethyl)-1,2,4-oxadiazol-3-yl]phenyl]methyl]-1H-pyrazole-5-carboxamide]
pest or weed control at 10 ppm [1]: 100%
pest or weed control at 250 ppm [4]: 98%
pest or weed control at 10 ppm [2, 7]: 100%
pest or weed control at 1.893 ppm [3, 8]: 9%
pest or weed control at 3.829 ppm [3, 8]: 58%
pest or weed control at 1.893 ppm [3, 6]: 14%
pest or weed control at 3.829 ppm [3, 6]: 66%

melting point: 80 to 85 °C
SMILES: COCCNC(=O)c1noc(Cc2ccc(-c3noc(C(F)(F)F)n3)cc2)n1 [Compound 511, N-(2-methoxyethyl)-5-[[4-[5-(trifluoromethyl)-1,2,4-oxadiazol-3-yl]phenyl]methyl]-1,2,4-oxadiazole-3-carboxamide]
pest or weed control at 250 ppm ([1]; 250 ppm test suspension): 100%
pest or weed control at 250 ppm [4]: 90%
pest or weed control at 250 ppm ([2]; 250 ppm test suspension, 100 = 100% disease control, 0 = no control): 100%
pest or weed control at 2.436 ppm [3, 9]: 21%
pest or weed control at 4.926 ppm [3, 9]: 68%
pest or weed control at 2.436 ppm [3, 6]: 40%
pest or weed control at 4.926 ppm [3, 6]: 66%
